Experimental data reported in ChEMBL document CHEMBL5380848, “Novel Benzo Five-Membered Heterocycle Derivatives as P-Glycoprotein Inhibitors: Design, Synthesis, Molecular Docking, and Anti-Multidrug Resistance Activity” (J Med Chem, 2023).

Key:
[1] = biological target: ATP-dependent translocase ABCB1 (Homo sapiens, UniProt P08183); assay: Inhibition of P-gp-mediated multidrug resistance in doxorubicin-resistant human MCF7/ADR cells assessed as fold reversal of resistance by measuring doxorubicin IC50 incubated for 48 hrs by CCK-8 assay relative to doxorubicin IC50 in absence of compound; type: cell-based; conditions: nci-adr-res
MCF7 = assay: Cytotoxicity against human MCF7 cells assessed as inhibition rate at 5 uM measured after […] hrs by CCK-8 assay relative to control; type: functional
NCI/ADR-RES = assay: Cytotoxicity against doxorubicin-resistant human MCF-7/ADR cells assessed as inhibition rate at 5 uM measured after […] hrs by CCK-8 assay relative to control; type: functional

ATP-dependent translocase ABCB1, sequence (P08183 whole entry): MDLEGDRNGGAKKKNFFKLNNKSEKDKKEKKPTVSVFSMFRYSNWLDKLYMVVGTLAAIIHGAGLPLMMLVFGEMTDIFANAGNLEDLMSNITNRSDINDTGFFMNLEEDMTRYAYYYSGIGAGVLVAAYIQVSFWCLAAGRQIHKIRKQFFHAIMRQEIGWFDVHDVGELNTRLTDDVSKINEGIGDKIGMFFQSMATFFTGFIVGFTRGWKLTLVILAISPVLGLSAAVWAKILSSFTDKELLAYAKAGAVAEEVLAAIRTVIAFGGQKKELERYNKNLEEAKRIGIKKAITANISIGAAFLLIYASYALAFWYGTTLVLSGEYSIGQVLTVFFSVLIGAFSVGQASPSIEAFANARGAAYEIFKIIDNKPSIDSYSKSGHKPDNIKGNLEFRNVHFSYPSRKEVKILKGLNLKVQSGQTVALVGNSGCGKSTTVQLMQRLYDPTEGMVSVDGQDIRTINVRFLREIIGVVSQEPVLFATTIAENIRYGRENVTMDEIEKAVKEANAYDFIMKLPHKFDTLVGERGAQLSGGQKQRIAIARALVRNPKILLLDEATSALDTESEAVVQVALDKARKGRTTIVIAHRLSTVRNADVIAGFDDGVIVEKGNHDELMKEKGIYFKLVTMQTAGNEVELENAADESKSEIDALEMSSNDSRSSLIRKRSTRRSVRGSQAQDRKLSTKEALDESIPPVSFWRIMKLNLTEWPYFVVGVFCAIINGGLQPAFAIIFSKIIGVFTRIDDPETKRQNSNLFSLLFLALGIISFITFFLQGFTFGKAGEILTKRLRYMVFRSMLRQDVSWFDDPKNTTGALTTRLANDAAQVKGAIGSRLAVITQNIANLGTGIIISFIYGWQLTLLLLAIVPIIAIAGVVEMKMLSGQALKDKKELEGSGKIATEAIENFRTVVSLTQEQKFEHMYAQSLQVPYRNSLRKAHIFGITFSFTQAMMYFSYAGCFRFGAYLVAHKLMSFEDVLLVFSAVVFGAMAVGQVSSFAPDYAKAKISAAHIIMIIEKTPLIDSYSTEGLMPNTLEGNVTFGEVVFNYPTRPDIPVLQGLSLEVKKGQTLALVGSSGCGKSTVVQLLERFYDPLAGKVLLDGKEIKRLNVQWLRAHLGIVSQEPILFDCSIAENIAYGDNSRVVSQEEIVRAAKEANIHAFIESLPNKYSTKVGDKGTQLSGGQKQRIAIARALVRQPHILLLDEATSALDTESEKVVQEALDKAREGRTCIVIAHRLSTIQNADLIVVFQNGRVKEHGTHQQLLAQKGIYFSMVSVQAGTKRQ

SMILES | fold change (FC) [1] | inhibition at 5 µM (MCF7) | inhibition at 5 µM (NCI/ADR-RES)
COc1cc2c(cc1OC)CN(C(=O)c1cc3cc(-c4ccc(NC(=O)c5ccc(Cl)cc5)cc4)ccc3n1Cc1cccc(Cl)c1)CC2 | 27.5 | 1.3% | 0.1%
COc1cc2c(cc1OC)CN(C(=O)c1cc3cc(-c4ccc(NC(=O)c5ccccc5F)cc4)ccc3[nH]1)CC2 | 469.8 | 13.9% | 18.7%
C/C=C/C[C@@H](C)[C@@H](O)[C@H]1C(=O)N[C@@H](CC)C(=O)N(C)CC(=O)N(C)[C@@H](CC(C)C)C(=O)N[C@@H](C(C)C)C(=O)N(C)[C@@H](CC(C)C)C(=O)N[C@@H](C)C(=O)N[C@H](C)C(=O)N(C)[C@@H](CC(C)C)C(=O)N(C)[C@@H](CC(C)C)C(=O)N(C)[C@@H](C(C)C)C(=O)N1C [CYCLOSPORINE] |  |  | 24.5%
COc1cc2c(cc1OC)CN(C(=O)c1cc3cc(-c4ccc(NC(=O)c5ccccc5OC)cc4)ccc3[nH]1)CC2 | 16.1 | 20.7% | -2.9%
COc1cccc(C(=O)Nc2ccc(-c3ccc4[nH]c(C(=O)N5CCc6cc(OC)c(OC)cc6C5)cc4c3)cc2)c1 | 325.9 | 11.4% | 18.9%
COc1cc2c(cc1OC)CN(C(=O)c1cc3cc(-c4ccc(NC(=O)c5ccc(Cl)cc5)cc4)ccc3n1Cc1cccc(Br)c1)CC2 | 118.6 | 7.9% | 21.6%
COc1cc2c(cc1OC)CN(C(=O)c1cc3cc(-c4ccc(NC(=O)c5ccc(Cl)cc5)cc4)ccc3n1Cc1ccc(C(F)(F)F)cc1)CC2 | 29 | 15.5% | 12.6%
COc1cc2c(cc1OC)CN(C(=O)c1cc3cc(-c4ccc(NC(=O)c5ccc(Cl)cc5)cc4)ccc3n1Cc1ccc([N+](=O)[O-])cc1)CC2 | 25.9 | 19.1% | 12.8%
COc1cccc(Cn2c(C(=O)N3CCc4cc(OC)c(OC)cc4C3)cc3cc(-c4ccc(NC(=O)c5ccc(Cl)cc5)cc4)ccc32)c1 | 26.5 | 5% | 5%
COc1cc2c(cc1OC)CN(C(=O)c1cc3cc(-c4ccc(NC(=O)c5ccc(Cl)cc5)cc4)ccc3n1Cc1ccccc1C(F)(F)F)CC2 | 10.4 | 19.3% | 8.6%
COc1cc2c(cc1OC)CN(C(=O)c1cc3cc(-c4ccc(NC(=O)c5ccc(Cl)cc5)cc4)ccc3n1Cc1cccc(C(F)(F)F)c1)CC2 | 39.9 | 8.5% | 6.3%
COc1cc2c(cc1OC)CN(C(=O)c1cc3cc(-c4ccc(NC(=O)c5cc(OC)c(OC)c(OC)c5)cc4)ccc3[nH]1)CC2 | 93.6 | 14.1% | 10.6%
COc1cc2c(cc1OC)CN(C(=O)c1cc3cc(-c4ccc(NC(=O)c5ccc(Cl)cc5)cc4)ccc3n1Cc1cccc(F)c1)CC2 | 37.6 | 1.7% | -2.6%
COc1cc2c(cc1OC)CN(C(=O)c1cc3cc(-c4ccc(NC(=O)c5ccc(Cl)cc5)cc4)ccc3n1Cc1ccccc1F)CC2 | 92.1 | 5.3% | 14.3%
COc1cc2c(cc1OC)CN(C(=O)c1cc3cc(-c4ccc(NC(=O)c5ccc(F)cc5)cc4)ccc3[nH]1)CC2 | 3628.7 | 52.8% | 50.4%
COc1cc2c(cc1OC)CN(C(=O)c1cc3cc(-c4ccc(NC(=O)c5ccc(Cl)cc5)cc4)ccc3n1Cc1ccccc1Br)CC2 | 36.1 | 18.2% | 17.1%
CCOc1ccc(C(=O)Nc2ccc(-c3ccc4[nH]c(C(=O)N5CCc6cc(OC)c(OC)cc6C5)cc4c3)cc2)cc1 | 333 | 15.4% | 7.7%
COc1cc2c(cc1OC)CN(C(=O)c1cc3cc(-c4ccc(NC(=O)c5ccc(C(F)(F)F)cc5)cc4)ccc3[nH]1)CC2 | 1717 | 11.8% | 22%
COc1cc2c(cc1OC)CN(C(=O)c1cc3cc(-c4ccc(NC(=O)c5ccc(Cl)cc5)cc4)ccc3n1Cc1ccccc1)CC2 | 55.4 | 10.1% | 6.9%
COc1cc2c(cc1OC)CN(C(=O)c1cc3cc(-c4ccc(NC(=O)c5ccc(Oc6ccccc6)cc5)cc4)ccc3[nH]1)CC2 | 23 | 19% | 15.5%

SMILES | fold change (FC) [1] | inhibition at 5 µM (MCF7) | inhibition at 5 µM (NCI/ADR-RES)
COc1cc2c(cc1OC)CN(C(=O)c1cc3cc(-c4ccc(NC(=O)c5ccc(Br)cc5)cc4)ccc3[nH]1)CC2 | 201.7 | 10.2% | 19.1%
COc1cc2c(cc1OC)CN(C(=O)c1cc3cc(-c4ccc(NC(=O)c5cccc(Cl)c5)cc4)ccc3[nH]1)CC2 | 431.5 | 12% | 17.7%
COc1ccc(C(=O)Nc2ccc(-c3ccc4[nH]c(C(=O)N5CCc6cc(OC)c(OC)cc6C5)cc4c3)cc2)cc1OC | 486.9 | 20.6% | 37.2%
COc1cc(Cn2c(C(=O)N3CCc4cc(OC)c(OC)cc4C3)cc3cc(-c4ccc(NC(=O)c5ccc(Cl)cc5)cc4)ccc32)cc(OC)c1 | 41.5 | 3% | 11.2%
COc1ccc(C(=O)Nc2ccc(-c3ccc4[nH]c(C(=O)N5CCc6cc(OC)c(OC)cc6C5)cc4c3)cc2)cc1 | 78 | 19.6% | 23.9%
COc1cc2c(cc1OC)CN(C(=O)c1cc3cc(-c4ccc(NC(=O)c5ccc(Cl)cc5)cc4)ccc3n1Cc1cc(C(F)(F)F)cc(C(F)(F)F)c1)CC2 | 40.9 | 3.8% | 1.9%
COc1cc2c(cc1OC)CN(C(=O)c1cc3cc(-c4ccc(NC(=O)c5ccc(Cl)cc5)cc4)ccc3n1Cc1ccc(Cl)cc1)CC2 | 25.9 | 2.6% | -3.3%
COc1ccc(Cn2c(C(=O)N3CCc4cc(OC)c(OC)cc4C3)cc3cc(-c4ccc(NC(=O)c5ccc(Cl)cc5)cc4)ccc32)cc1 | 105.6 | 3.2% | 18.1%
COc1cc2c(cc1OC)CN(C(=O)c1cc3cc(-c4ccc(NC(=O)c5ccccc5)cc4)ccc3[nH]1)CC2 | 146.3 | 15.5% | 11%
COc1cc2c(cc1OC)CN(C(=O)c1cc3cc(-c4ccc(NC(=O)c5ccc(Cl)cc5)cc4)ccc3n1Cc1ccc(OC(F)(F)F)cc1)CC2 | 29.2 | 0.3% | 2.8%
COc1cc2c(cc1OC)CN(C(=O)c1cc3cc(-c4ccc(NC(=O)c5ccc(Cl)cc5)cc4)ccc3n1Cc1ccccc1Cl)CC2 | 30.3 | 13.4% | 18.6%
COc1cc2c(cc1OC)CN(C(=O)c1cc3cc(-c4ccc(NC(=O)c5ccc(Cl)cc5)cc4)ccc3n1Cc1ccc(F)cc1)CC2 | 53.5 | 11.2% | 16.6%
COc1ccc(CCN(C)CCCC(C#N)(c2ccc(OC)c(OC)c2)C(C)C)cc1OC (stereo not given) |  | 6.9% | 12.2%
COc1cc2c(cc1OC)CN(C(=O)c1cc3cc(-c4ccc(NC(=O)c5ccc(Cl)cc5)cc4)ccc3n1Cc1ccc(Br)cc1)CC2 | 31.1 | 3.5% | -13.8%
COc1cc2c(cc1OC)CN(C(=O)c1cc3cc(-c4cccc(C)c4)ccc3[nH]1)CC2 | 58.1 |  | 
COc1cc2c(cc1OC)CN(C(=O)c1cc3cc(-c4ccc(NC(=O)c5ccc(OC(F)(F)F)cc5)cc4)ccc3[nH]1)CC2 |  | 46.7% | 53.8%
COc1cc2c(cc1OC)CN(C(=O)c1cc3cc(-c4ccc(NC(=O)c5ccc(C#N)cc5)cc4)ccc3[nH]1)CC2 | 39.1 | 10.7% | 19.5%
COc1cc2c(cc1OC)CN(C(=O)c1cc3cc(-c4ccc(NC(=O)c5ccc(I)cc5)cc4)ccc3[nH]1)CC2 | 83 | 15.4% | 12.9%
COc1ccc(-c2ccc3[nH]c(C(=O)N4CCc5cc(OC)c(OC)cc5C4)cc3c2)c(OC)c1 | 112.7 |  | 
COc1cc(OC)cc(-c2ccc3[nH]c(C(=O)N4CCc5cc(OC)c(OC)cc5C4)cc3c2)c1 | 86.4 |  | 
